# Measured values reported in article PMC3162579 (Fluids and Barriers of the CNS, 2011).
# “And” between values parts separate entries of the source, which are not always exact repeats. Identical values can stand only once.
# Assays:
# [1] = design: method as in PMID 2339131; details: mice receiving over 0.1 μg every other day for 2 weeks; cited from earlier work
# [2] = Tolerability in mice: body weight, behavior, residual [^3H]dextran (BBB integrity); format: in vivo; details: mouse, data not shown
# [3] = tested on: brain-to-blood [^125I]hAβ(1-40) efflux transport across the BBB; assay: Brain Efflux Index (BEI) study: elimination of [^125I]hAβ(1-40) after intracerebral microinjection; format: in vivo; details: for decrease of percentage of [^125I]hAβ(1-40) remaining in ipsilateral cerebrum versus vehicle-treated control: n = 5; for effect on percentage of [^125I]hAβ(1-40) remaining versus vehicle-treated control: single i.p. 1 μg/mouse
# Procedure: Control mice were injected i.p. with 100 μL of each vehicle solution. After an indicated time (24, 48, or 72 h), the in vivo brain elimination experiments were performed using the intracerebral microinjection technique. Briefly, mice were anesthetized with an intramuscular injection of xylazine (1.22 mg/kg) and ketamine (125 mg/kg), and placed in a stereotaxic frame (SRS-6; Narishige, Tokyo, Japan) that determines the coordinates of the mouse brain coinciding with the secondary somatosensory cortex 2 (S2) region. A small hole was made 3.8 mm lateral to the bregma, and a fine injection needle fitted to a 5.0 μl microsyringe (Hamilton, Reno, NE, USA) was advanced to a depth of 2.5 mm. The solution of [^125I]hAβ(1-40) was freshly prepared from lyophilized [^125I]hAβ(1-40) immediately before each experiment. Lyophilized [^125I]hAβ(1-40) was solubilized in H2O and then added to an equal volume of 2-fold concentration of extracellular fluid (ECF) buffer (244 mM NaCl, 50 mM NaHCO3, 6 mM KCl, 2.8 mM CaCl2, 2.4 mM MgSO4, 0.8 mM K2HPO4, 20 mM D-glucose, and 20 mM HEPES, pH 7.4). […] The applied solution (0.3 μl) containing [^125I]hAβ(1-40) and [^3H]dextran in an ECF buffer was administered into the S2 region over a period of 30 sec. After microinjection, the microsyringe was left in place for 4 min to minimize any backflow. At 5, 30 or 60 min after microinjection, ipsilateral (left) and contralateral (right) cerebrum and cerebellum were excised and dissolved in 2.0 ml 2 M NaOH at 60°C for 1 h. The ^125I and ^3H radioactivities of the samples were measured in a γ-counter (ART300, Aloka, Tokyo, Japan) for 3 min and a liquid scintillation counter (TRI-CARB2050CA, Packard Instruments, Meriden, CT, USA) for 5 min, respectively. The BEI was defined by Equation (1), and the percentage of substrate remaining in the ipsilateral cerebrum (100-BEI) was determined using Equation (2): [drawing 1] [drawing 2]
# The apparent elimination rate constant (kel) was determined from the slope given by fitting a semilogarithmic plot of (100-BEI) versus time, using the nonlinear least-squares regression analysis program MULTI [27].
# [4] = after i.p. administration; cited from earlier work
# Description: Reduction of Aβ in the CNS is considered to be a primary therapeutic target for AD.
# TM-BBB4 cells [5] = assay: In vitro internalization (acid-resistant binding) of [^125I]hAβ(1-40) in TM-BBB4 cells; format: cell-based, mouse
# Procedure: The TM-BBB4 cell line, established from transgenic mice harboring the temperature-sensitive SV40 large T-antigen gene, was used in this study. TM-BBB4 cells were cultured at 33°C in Dulbecco's modified Eagle's medium (DMEM; Nissui Pharmaceutical Co., Tokyo, Japan), supplemented with 20 mM NaHCO3, 2 mM L-glutamine, 15 ng/ml endothelial cell growth factor, 100 U/ml benzyl penicillin, […] streptomycin sulfate, and 10% fetal bovine serum (Moregate, Bulimba, Australia) in an atmosphere of 95% air and 5% CO2.
# TM-BBB4 cells were seeded on 24-well plates (Becton Dickinson, Bedford, MA, USA) at a density of 1.0 × 10^5 cells/2 cm^2/well and cultured for 24 h. The cells were treated with the indicated concentrations of forskolin and U0126 or vehicle for 24 h, and then internalization of [^125I]hAβ(1-40) into TM-BBB4 cells was examined as previously described. Briefly, the extent of TM-BBB4 cell-[^125I]hAβ(1-40) (0.15 μCi/200 μl in ECF buffer) binding was measured for 3 min at 37°C. After the indicated times, binding was terminated by removing the solution, and the cells were washed three times with 1 ml ice-cold ECF buffer. The cells were then incubated with 1 ml ice-cold acetate-barbital buffer (28 mM CH3COONa, 120 mM NaCl, 20 mM barbital sodium (pH 3.0) and 360 mOsm/kg) for 20 min at 4°C to remove [^125I]hAβ(1-40) bound to the cell surface. After incubation, the buffer was then recovered (acid-soluble fraction) and the cells were subsequently washed three times with ice-cold acetate-barbital buffer.
# (§1) Acid-resistant binding represents the amount of internalized [^125I]hAβ(1-40) in the TM-BBB4 cells. The cells were solubilized with 200 μl of 5 M NaOH overnight and neutralized with 200 μl of 5 M HCl. The ^125I radioactivity was measured using a γ-counter (ART310, Aloka, Tokyo, Japan). The protein content of the cultured cells was measured using a DC protein assay kit (Bio-Rad, Hercules, CA, USA) with bovine serum albumin as a standard.
# [6] = tested on: elimination of [^125I]hAβ(1-40) from rat brain; details: cited from earlier work
# Procedure: The present study examined the [^125I]hAβ(1-40) elimination from the brain for 60 min, and considerable degradation of injected [^125I]hAβ(1-40) might occur during this period.
# TM-BBB4 cells [7] = assay: Protein content of TM-BBB4 cells after the uptake (DC protein assay); format: cell-based, mouse
# Procedure: as §1
compound,measurement,setting,value
"C=C1/C(=C\C=C2/CCC[C@]3(C)[C@@H]([C@H](C)CCCC(C)(C)O)CC[C@@H]23)C[C@@H](O)C[C@@H]1O [1,25(OH)2D3, 1α,25-dihydroxyvitamin D3]",hypercalcemia (calcium level),[1],over 12 mg/dL
same,adverse effects during repeated treatment,"[2]; 1 μg/day, from day 4",reduced body weight and abnormal behavior
same,body weight,"[2]; single i.p. dose, up to 72 h after administration",No significant decrease
same,initial percentage of [^125I]hAβ(1-40) remaining in the mouse brain,"[3]; 1 μg/mouse i.p., 24 h, not significantly different from vehicle (114%)",118%
same,percentage of [^125I]hAβ(1-40) remaining in brain compared with vehicle-treatment group,"[3]; mouse, 1 μg/mouse i.p., 24 h, 60 min after microinjection, time-profile experiment (Figure 1A)",significantly lower
same,increase of [^125I]hAβ(1-40) elimination rate constant versus vehicle-treated group,"[3]; mouse, 1 μg/mouse i.p., 24 h after injection, p < 0.01",1.3 fold and 1.29 fold
same,decrease of percentage of [^125I]hAβ(1-40) remaining in ipsilateral cerebrum versus vehicle-treated control,"[3]; mouse, single i.p. 0.2 μg/mouse, 24 h, 60 min after microinjection",12.9%
same,effect on percentage of [^125I]hAβ(1-40) remaining versus vehicle-treated control,"[3]; mouse, 24 h after administration, 60 min after microinjection, n = 4-5 (Figure 2B)",significant reduction
same,effect on percentage of [^125I]hAβ(1-40) remaining versus vehicle-treated control,"[3]; mouse, 48 h after administration, 60 min after microinjection, n = 4-5",no significant reduction
same,effect on percentage of [^125I]hAβ(1-40) remaining versus vehicle-treated control,"[3]; mouse, 72 h after administration, 60 min after microinjection, n = 4-5",no significant reduction
same,decrease of percentage of [^125I]hAβ(1-40) remaining in ipsilateral cerebrum versus vehicle-treated control,"[3]; mouse, single i.p. 5 μg/mouse, 24 h, 60 min after microinjection",19.5%
same,apparent elimination rate constant (kel) of [^125I]hAβ(1-40) across the BBB,"[3]; mouse, single i.p. dose 1 μg/mouse, 24 h before microinjection, slope of (100-BEI) time profile 5-60 min, mean ± SD, n = 3-5, vehicle group 1.85 × 10^-2",0.0238 ± 0.0009 min⁻¹
same,time at which plasma concentration reaches a maximum,[4],≤ 2 h
same,time at which plasma concentration returns to baseline,[4],24 h
same,effect on [^125I]hAβ(1-40) internalization by TM-BBB4,TM-BBB4 cells [5]; data not shown,failed to provide consistent results
N[C@@H](Cc1ccc(O)cc1)C(=O)O [L-tyrosine],inhibition of elimination of [^125I]hAβ(1-40) from rat brain,[6],not significantly inhibited
N#CC(=C(/N)Sc1ccccc1N)/C(C#N)=C(/N)Sc1ccccc1N [U0126],protein content of the cells after the uptake,"TM-BBB4 cells [7]; 24 h treatment (U0126 25 μM, forskolin 10 μM), mean ± SEM, n = 4, control 89.8 ± 6.0",72.0 ± 7.0 μg protein/well
same,reduction of protein content of the cells after the uptake,"TM-BBB4 cells [7]; U0126 25 μM, 24 h, versus control 89.8 ± 6.0 μg protein/well",19.8%
same,effect on forskolin-induced enhancement of [^125I]hAβ(1-40) acid-resistant binding,"TM-BBB4 cells [5]; U0126 25 μM with forskolin 10 μM for 24 h, [^125I]hAβ(1-40) 0.4 nM, 3 min, n = 4",suppressed
same,reduction of acid-resistant binding of [^125I]hAβ(1-40) compared with the control,"TM-BBB4 cells [5]; pre-treatment with U0126 alone, 25 μM, 24 h, 3 min uptake, n = 4",11.2%
C=C[C@@]1(C)CC(=O)[C@]2(O)[C@@]3(C)[C@@H](O)CCC(C)(C)[C@@H]3[C@H](O)[C@H](OC(C)=O)[C@@]2(C)O1 [forskolin],decrease of percentage of [^125I]hAβ(1-40) remaining in mouse brain versus vehicle-treated group,"[3]; single i.p. 2.3 μg/mouse, 24 h, 60 min after microinjection, n = 4-5",16.4%
same,decrease of percentage of [^125I]hAβ(1-40) remaining in mouse brain versus vehicle-treated group,"[3]; single i.p. 23 μg/mouse, 24 h, 60 min after microinjection, n = 4-5",16.4%
same,effect on acid-resistant binding (internalization) of [^125I]hAβ(1-40) by TM-BBB4 cells,"TM-BBB4 cells [5]; pre-treatment 10 μM for 24 h, 0.1% DMSO, [^125I]hAβ(1-40) 0.4 nM, 3 min, 37°C, n = 4",significantly increased
C[C@H](/C=C/[C@H](C)C(C)(C)O)[C@H]1CC[C@H]2/C(=C/C=C3C[C@@H](O)C[C@H](O)C3)CCC[C@]12C [paricalcitol],effect on [^125I]hAβ(1-40) elimination from mouse brain,[3]; data not shown,did not significantly enhance
